Measured values from patent publication US12365696B2, “Small-molecule focal adhesion kinase (FAK) inhibitors” (DANA-FARBER CANCER INSTITUTE, INC., priority 2019, dated 2025).

Columns and labels:
MDA-MB-231 cells = experiment: 2D-adherent monolayer cell viability (Cell Titer-Glo), 120 hrs; type: cell-based; details: Homo sapiens
Protocol: For 2D-adherent monolayer experiments, MDA-MB-231 cells were plated in 384-well format and allowed to adhere overnight. Cells were treated with indicated molecules from compound stock plates using a JANUS® Workstation pin tool for 120 hrs. To measure cell viability, Cell Titer-Glo® was added to wells for 15 minutes at room temperature and luminescence was measured on an EnVision™ 2104 Multilabel Plate Reader.
Inventive compound treatment (0.00063-20 μM) led to antiproliferative effects in MDA-MB-231 cells cultured as 2D-adherent monolayers or as ultra-low adherent 3D-spheroid suspensions (Table 5).

[1] = biological target: ABL1(E255K)-phosphorylated (Homo sapiens (Human), UniProt P00519, E255K); experiment: KINOMEscan; type: binding; details: 10000 nM, read-out: Percent Control
[2] = biological target: ABL1(H396P)-phosphorylated (Homo sapiens (Human), UniProt P00519, H396P); experiment: KINOMEscan; type: binding; details: 10000 nM, read-out: Percent Control
AMPK-alpha1 = AMPK-alpha1 (Homo sapiens (Human), UniProt Q13131); experiment: KINOMEscan; type: binding; details: AMPK-alpha1, 10000 nM; read-out: Percent Control
CDK4 = CDK4 (Homo sapiens (Human), UniProt P11802); experiment: KINOMEscan; type: binding; details: CDK4, 10000 nM; read-out: Percent Control
CSNK1D = CSNK1D (Homo sapiens (Human), UniProt P48730); experiment: KINOMEscan; type: binding; details: 10000 nM, read-out: Percent Control
DAPK1 = DAPK1 (Homo sapiens (Human), UniProt P53355); experiment: KINOMEscan; type: binding; details: DAPK1, 10000 nM; read-out: Percent Control
DCAMKL2 = DCAMKL2 (Homo sapiens (Human), UniProt Q8N568); experiment: KINOMEscan; type: binding; details: DCAMKL2, 10000 nM; read-out: Percent Control
DCAMKL3 = DCAMKL3 (Homo sapiens (Human), UniProt Q9C098); experiment: KINOMEscan; type: binding; details: DCAMKL3, 10000 nM; read-out: Percent Control
EGFR(G719S) = EGFR(G719S) (Homo sapiens (Human), UniProt P00533, G719S); experiment: KINOMEscan; type: binding; details: 10000 nM, read-out: Percent Control
EPHA2 = EPHA2 (Homo sapiens (Human), UniProt P29317); experiment: KINOMEscan; type: binding; details: EPHA2, 10000 nM; read-out: Percent Control
ERK1 = ERK1 (Homo sapiens (Human), UniProt P27361); experiment: KINOMEscan; type: binding; details: ERK1, 10000 nM; read-out: Percent Control
IRAK3 = IRAK3 (Homo sapiens (Human), UniProt Q9Y616); experiment: KINOMEscan; type: binding; details: IRAK3, 10000 nM; read-out: Percent Control
IRAK4 = IRAK4 (Homo sapiens (Human), UniProt Q9NWZ3); experiment: KINOMEscan; type: binding; details: IRAK4, 10000 nM; read-out: Percent Control
LCK = LCK (Homo sapiens (Human), UniProt P06239); experiment: KINOMEscan; type: binding; details: 10000 nM, read-out: Percent Control
LIMK1 = LIMK1 (Homo sapiens (Human), UniProt P53667); experiment: KINOMEscan; type: binding; details: LIMK1, 10000 nM; read-out: Percent Control
LYN = LYN (Homo sapiens (Human), UniProt P07948); experiment: KINOMEscan; type: binding; details: 10000 nM, read-out: Percent Control
MAP3K3 = MAP3K3 (Homo sapiens (Human), UniProt Q99759); experiment: KINOMEscan; type: binding; details: MAP3K3, 10000 nM; read-out: Percent Control
NEK5 = NEK5 (Homo sapiens (Human), UniProt Q6P3R8); experiment: KINOMEscan; type: binding; details: NEK5, 10000 nM; read-out: Percent Control
NEK9 = NEK9 (Homo sapiens (Human), UniProt Q8TD19); experiment: KINOMEscan; type: binding; details: NEK9, 10000 nM; read-out: Percent Control
NIK = NIK (Homo sapiens (Human), UniProt Q99558); experiment: KINOMEscan; type: binding; details: 10000 nM, read-out: Percent Control
PFCDPK1(P. falciparum) = PFCDPK1(P. falciparum) (Plasmodium falciparum (isolate 3D7), UniProt P62344); experiment: KINOMEscan; type: binding; details: 10000 nM, read-out: Percent Control
RET(M918T) = RET(M918T) (Homo sapiens (Human), UniProt P07949, M918T); experiment: KINOMEscan; type: binding; details: 10000 nM, read-out: Percent Control
SBK1 = SBK1 (Homo sapiens (Human), UniProt Q52WX2); experiment: KINOMEscan; type: binding; details: SBK1, 10000 nM; read-out: Percent Control
SGK = SGK (Homo sapiens (Human), UniProt O00141); experiment: KINOMEscan; type: binding; details: 10000 nM, read-out: Percent Control
TAOK2 = TAOK2 (Homo sapiens (Human), UniProt Q9UL54); experiment: KINOMEscan; type: binding; details: TAOK2, 10000 nM; read-out: Percent Control
TLK2 = TLK2 (Homo sapiens (Human), UniProt Q86UE8); experiment: KINOMEscan; type: binding; details: TLK2, 10000 nM; read-out: Percent Control
TSSK1B = TSSK1B (Homo sapiens (Human), UniProt Q9BXA7); experiment: KINOMEscan; type: binding; details: 10000 nM, read-out: Percent Control
VPS34 = VPS34 (Homo sapiens (Human), UniProt Q8NEB9); experiment: KINOMEscan; type: binding; details: VPS34, 10000 nM; read-out: Percent Control
WNK2 = WNK2 (Homo sapiens (Human), UniProt Q9Y3S1); experiment: KINOMEscan; type: binding; details: WNK2, 10000 nM; read-out: Percent Control
YANK1 = YANK1 (Homo sapiens (Human), UniProt Q8WU08); experiment: KINOMEscan; type: binding; details: YANK1, 10000 nM; read-out: Percent Control

Chain of NIK (Q99558 whole entry): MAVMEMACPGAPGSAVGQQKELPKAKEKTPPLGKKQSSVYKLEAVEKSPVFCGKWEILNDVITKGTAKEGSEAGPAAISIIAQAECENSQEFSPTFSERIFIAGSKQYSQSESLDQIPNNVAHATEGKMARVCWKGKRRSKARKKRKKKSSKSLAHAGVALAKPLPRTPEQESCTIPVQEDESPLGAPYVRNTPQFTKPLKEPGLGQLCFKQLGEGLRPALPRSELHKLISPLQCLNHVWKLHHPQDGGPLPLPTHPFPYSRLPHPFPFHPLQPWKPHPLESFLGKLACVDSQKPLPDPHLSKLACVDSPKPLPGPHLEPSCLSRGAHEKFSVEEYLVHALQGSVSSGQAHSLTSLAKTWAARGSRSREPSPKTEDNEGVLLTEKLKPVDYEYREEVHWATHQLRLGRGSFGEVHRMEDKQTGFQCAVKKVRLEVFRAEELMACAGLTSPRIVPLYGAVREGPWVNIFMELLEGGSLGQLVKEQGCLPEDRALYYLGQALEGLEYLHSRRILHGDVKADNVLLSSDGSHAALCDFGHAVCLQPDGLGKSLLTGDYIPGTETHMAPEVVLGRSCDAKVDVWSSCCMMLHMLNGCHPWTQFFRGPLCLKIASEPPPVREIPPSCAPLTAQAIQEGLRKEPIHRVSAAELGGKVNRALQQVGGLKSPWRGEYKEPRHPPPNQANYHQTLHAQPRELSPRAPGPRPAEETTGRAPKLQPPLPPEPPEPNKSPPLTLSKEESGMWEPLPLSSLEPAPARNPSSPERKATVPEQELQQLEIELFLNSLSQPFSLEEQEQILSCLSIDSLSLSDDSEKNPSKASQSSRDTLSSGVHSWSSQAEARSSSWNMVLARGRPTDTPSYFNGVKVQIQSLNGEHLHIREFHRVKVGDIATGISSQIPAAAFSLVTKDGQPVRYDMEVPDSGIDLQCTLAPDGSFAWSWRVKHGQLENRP
Chain of LYN (P07948 whole entry): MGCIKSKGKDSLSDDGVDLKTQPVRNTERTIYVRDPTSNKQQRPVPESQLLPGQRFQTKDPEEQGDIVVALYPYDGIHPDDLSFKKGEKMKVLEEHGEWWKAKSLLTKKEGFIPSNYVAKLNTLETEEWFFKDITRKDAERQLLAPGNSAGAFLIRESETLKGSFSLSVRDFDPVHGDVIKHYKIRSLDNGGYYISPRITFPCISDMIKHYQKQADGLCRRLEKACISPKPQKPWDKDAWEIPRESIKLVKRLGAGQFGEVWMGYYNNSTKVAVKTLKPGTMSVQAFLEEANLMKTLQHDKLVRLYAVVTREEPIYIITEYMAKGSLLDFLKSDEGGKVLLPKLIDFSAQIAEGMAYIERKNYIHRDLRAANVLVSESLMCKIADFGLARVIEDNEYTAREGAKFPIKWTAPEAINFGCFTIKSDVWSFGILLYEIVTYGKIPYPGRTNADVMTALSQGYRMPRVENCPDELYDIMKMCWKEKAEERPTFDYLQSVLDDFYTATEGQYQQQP
Chain of SGK (O00141 whole entry): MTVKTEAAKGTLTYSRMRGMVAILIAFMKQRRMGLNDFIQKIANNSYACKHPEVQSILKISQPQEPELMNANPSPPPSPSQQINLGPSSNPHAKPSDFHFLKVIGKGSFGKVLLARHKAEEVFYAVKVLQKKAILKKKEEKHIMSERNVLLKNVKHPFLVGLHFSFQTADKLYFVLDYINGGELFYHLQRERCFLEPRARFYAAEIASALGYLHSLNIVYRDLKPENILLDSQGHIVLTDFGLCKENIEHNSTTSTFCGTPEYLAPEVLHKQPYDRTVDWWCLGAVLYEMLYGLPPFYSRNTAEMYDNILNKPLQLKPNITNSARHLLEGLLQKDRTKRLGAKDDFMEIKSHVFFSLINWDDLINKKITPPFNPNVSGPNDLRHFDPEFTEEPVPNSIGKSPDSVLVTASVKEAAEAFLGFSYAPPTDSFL
Chain of IRAK3 (Q9Y616 whole entry): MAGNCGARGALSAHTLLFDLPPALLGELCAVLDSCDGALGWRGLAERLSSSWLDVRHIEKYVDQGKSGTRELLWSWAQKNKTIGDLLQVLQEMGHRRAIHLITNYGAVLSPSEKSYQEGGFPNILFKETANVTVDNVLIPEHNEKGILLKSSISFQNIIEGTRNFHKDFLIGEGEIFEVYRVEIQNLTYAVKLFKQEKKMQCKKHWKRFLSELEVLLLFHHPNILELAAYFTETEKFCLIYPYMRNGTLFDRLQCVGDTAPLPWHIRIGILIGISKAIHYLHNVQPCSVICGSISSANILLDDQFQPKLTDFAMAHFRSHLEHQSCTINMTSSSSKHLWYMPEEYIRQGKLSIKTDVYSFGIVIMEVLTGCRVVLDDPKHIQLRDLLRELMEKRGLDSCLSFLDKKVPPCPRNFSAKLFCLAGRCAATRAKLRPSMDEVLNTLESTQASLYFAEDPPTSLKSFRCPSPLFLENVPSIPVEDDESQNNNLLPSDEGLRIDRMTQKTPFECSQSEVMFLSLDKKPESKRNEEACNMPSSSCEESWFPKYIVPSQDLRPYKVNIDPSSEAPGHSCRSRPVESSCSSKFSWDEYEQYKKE
Chain of LIMK1 (P53667 whole entry): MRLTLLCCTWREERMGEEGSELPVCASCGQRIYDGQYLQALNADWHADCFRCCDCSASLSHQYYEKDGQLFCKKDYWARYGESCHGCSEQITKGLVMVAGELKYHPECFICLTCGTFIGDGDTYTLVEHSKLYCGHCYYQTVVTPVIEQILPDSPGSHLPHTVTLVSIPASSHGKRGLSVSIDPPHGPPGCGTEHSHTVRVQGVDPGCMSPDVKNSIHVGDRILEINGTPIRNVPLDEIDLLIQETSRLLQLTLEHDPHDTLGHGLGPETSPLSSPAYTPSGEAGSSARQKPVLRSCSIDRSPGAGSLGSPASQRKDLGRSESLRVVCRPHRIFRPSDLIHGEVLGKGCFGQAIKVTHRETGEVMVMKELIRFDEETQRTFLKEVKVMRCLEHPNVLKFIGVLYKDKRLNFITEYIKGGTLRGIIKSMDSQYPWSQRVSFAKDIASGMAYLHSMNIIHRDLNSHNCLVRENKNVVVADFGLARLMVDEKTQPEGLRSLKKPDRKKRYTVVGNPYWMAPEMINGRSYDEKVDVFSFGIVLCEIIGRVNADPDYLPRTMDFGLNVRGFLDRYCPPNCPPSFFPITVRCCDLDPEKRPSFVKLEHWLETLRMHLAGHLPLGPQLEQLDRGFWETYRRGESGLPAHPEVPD
Chain of EPHA2 (P29317 24-976): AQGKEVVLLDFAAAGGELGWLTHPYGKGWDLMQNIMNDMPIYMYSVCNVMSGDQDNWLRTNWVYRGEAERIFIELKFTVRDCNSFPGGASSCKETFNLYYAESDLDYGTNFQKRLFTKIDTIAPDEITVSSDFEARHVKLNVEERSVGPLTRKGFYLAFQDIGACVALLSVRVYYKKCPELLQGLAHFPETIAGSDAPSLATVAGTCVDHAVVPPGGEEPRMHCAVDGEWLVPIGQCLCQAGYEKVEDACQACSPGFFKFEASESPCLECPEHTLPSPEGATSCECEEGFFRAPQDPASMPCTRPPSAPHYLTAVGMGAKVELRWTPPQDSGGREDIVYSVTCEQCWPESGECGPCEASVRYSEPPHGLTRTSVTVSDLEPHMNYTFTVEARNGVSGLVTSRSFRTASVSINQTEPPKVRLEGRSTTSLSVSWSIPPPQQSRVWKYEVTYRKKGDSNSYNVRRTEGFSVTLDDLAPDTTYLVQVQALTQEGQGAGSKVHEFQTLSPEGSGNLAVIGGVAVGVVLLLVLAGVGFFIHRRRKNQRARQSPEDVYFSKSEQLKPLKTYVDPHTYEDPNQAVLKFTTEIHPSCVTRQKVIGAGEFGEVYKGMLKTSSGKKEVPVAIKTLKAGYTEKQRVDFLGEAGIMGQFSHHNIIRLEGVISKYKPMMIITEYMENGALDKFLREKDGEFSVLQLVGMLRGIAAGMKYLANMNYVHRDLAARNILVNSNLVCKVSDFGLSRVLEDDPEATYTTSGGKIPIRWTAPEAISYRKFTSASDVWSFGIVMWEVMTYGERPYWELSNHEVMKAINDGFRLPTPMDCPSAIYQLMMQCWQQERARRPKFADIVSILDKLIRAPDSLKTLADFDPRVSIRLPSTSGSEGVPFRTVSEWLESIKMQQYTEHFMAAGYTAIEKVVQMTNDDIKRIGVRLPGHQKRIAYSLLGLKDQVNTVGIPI
Chain of IRAK4 (Q9NWZ3 whole entry): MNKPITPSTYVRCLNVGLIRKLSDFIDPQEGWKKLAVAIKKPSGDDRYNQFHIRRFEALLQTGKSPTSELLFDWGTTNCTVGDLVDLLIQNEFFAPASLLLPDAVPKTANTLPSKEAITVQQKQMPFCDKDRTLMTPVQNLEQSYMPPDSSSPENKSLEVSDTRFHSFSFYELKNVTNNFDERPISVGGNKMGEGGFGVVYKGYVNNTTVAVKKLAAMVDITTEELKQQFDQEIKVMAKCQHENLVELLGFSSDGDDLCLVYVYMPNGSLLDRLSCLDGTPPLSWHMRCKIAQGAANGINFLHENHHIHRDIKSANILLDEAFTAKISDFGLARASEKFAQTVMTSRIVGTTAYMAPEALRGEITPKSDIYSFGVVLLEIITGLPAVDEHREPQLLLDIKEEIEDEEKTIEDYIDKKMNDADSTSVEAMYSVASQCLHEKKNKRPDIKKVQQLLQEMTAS
Chain of CSNK1D (P48730 whole entry): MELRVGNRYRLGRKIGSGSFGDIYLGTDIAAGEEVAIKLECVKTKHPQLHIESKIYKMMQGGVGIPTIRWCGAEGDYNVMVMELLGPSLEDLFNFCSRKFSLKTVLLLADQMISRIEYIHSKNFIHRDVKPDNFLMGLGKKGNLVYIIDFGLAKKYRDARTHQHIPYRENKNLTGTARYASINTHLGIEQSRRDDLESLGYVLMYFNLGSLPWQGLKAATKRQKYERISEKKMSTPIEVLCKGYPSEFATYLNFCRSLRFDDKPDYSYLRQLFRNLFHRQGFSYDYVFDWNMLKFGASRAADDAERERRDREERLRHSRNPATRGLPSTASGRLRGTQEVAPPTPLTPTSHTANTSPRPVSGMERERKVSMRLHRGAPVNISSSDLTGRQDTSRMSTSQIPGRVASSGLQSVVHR

| Compound | IC50 (MDA-MB-231 cells) [µM] | remaining binding at 10 µM [1] [%] | remaining binding at 10 µM [2] [%] | remaining binding at 10 µM (AMPK-alpha1) [%] | remaining binding at 10 µM (CDK4) [%] | remaining binding at 10 µM (CSNK1D) [%] | remaining binding at 10 µM (DAPK1) [%] | remaining binding at 10 µM (DCAMKL2) [%] | remaining binding at 10 µM (DCAMKL3) [%] | remaining binding at 10 µM (EGFR(G719S)) [%] | remaining binding at 10 µM (EPHA2) [%] | remaining binding at 10 µM (ERK1) [%] | remaining binding at 10 µM (IRAK3) [%] | remaining binding at 10 µM (IRAK4) [%] | remaining binding at 10 µM (LCK) [%] | remaining binding at 10 µM (LIMK1) [%] | remaining binding at 10 µM (LYN) [%] | remaining binding at 10 µM (MAP3K3) [%] | remaining binding at 10 µM (NEK5) [%] | remaining binding at 10 µM (NEK9) [%] | also measured |
| --- | --- | --- | --- | --- | --- | --- | --- | --- | --- | --- | --- | --- | --- | --- | --- | --- | --- | --- | --- | --- | --- |
| COc1cc(N2CCC(N3CCN(C)CC3)CC2)ccc1Nc1ncc2c(n1)N(C)c1sc(C)nc1C(=O)N2 [Compound 3, 6-((2-methoxy-4-(4-(4-methylpiperazin-1-yl)piperidin-1-yl)phenyl)amino)-2,4-dimethyl-4,9-dihydro-10H-pyrimido[5,4-b]thiazolo[5,4-e][1,4]diazepin-10-one] | > 10 | 17 | 19 | 79 | 100 | 54 | 72 | 87 | 81 | 48 | 91 | 88 | 80 | 100 | 45 | 96 | 69 | 100 | 97 | 84 | remaining binding at 10 µM (NIK): 85%; remaining binding at 10 µM (PFCDPK1(P. falciparum)): 100%; remaining binding at 10 µM (RET(M918T)): 87%; remaining binding at 10 µM (SBK1): 100%; remaining binding at 10 µM (SGK): 100%; remaining binding at 10 µM (TAOK2): 95%; remaining binding at 10 µM (TLK2): 100%; remaining binding at 10 µM (TSSK1B): 74%; remaining binding at 10 µM (VPS34): 100%; remaining binding at 10 µM (WNK2): 74%; remaining binding at 10 µM (YANK1): 77% |
| COc1cc(N2CCC(N3CCN(C)CC3)CC2)ccc1Nc1ncc2c(n1)N(C)c1sc(C)nc1C(=O)N2C [Compound 5, 6-((2-methoxy-4-(4-(4-methylpiperazin-1-yl)piperidin-1-yl)phenyl)amino)-2,4,9-trimethyl-4,9-dihydro-10H-pyrimido[5,4-b]thiazolo[5,4-e][1,4]diazepin-10-one] | 7.6 | 100 | 100 | 91 | 100 | 87 | 84 | 3 | 86 | 100 | 91 | 92 | 99 | 88 | 100 | 95 | 100 | 100 | 100 | 100 | remaining binding at 10 µM (NIK): 93%; remaining binding at 10 µM (PFCDPK1(P. falciparum)): 99%; remaining binding at 10 µM (RET(M918T)): 100%; remaining binding at 10 µM (SBK1): 98%; remaining binding at 10 µM (SGK): 100%; remaining binding at 10 µM (TAOK2): 93%; remaining binding at 10 µM (TLK2): 100%; remaining binding at 10 µM (TSSK1B): 68%; remaining binding at 10 µM (VPS34): 89%; remaining binding at 10 µM (WNK2): 100%; remaining binding at 10 µM (YANK1): 100% |
